Results as given in US9561231B2 (AbbVie Inc., priority 2012, dated 2017).
Read-outs that look alike come from different tables or passages of the source.

How the values were obtained:
[1] = biological target: T1, second (BD2: amino acids E352-E168) bromodomain of BRD4 (Homo sapiens, UniProt O60885); experiment: TR-FRET bromodomain binding assay, BRD4 BD2; conditions: Ki calculated from IC50, probe Kd and probe concentration, read-out: TR-FRET Binding Ki: BRD4 (BDII_E352-M457)
T1 construct: protocol
Procedure, shortened: (§1)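 TR-FRET probe competition, His-tagged bromodomain, Alexa647-labeled BET-inhibitor tracer. Ki from IC50 via probe Kd.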

[2] = biological target: T2, first (BD1: amino acids K57-E168) bromodomain of BRD4 (Homo sapiens, UniProt O60885); experiment: TR-FRET bromodomain binding assay, BRD4 BD1; conditions: Ki calculated from IC50, probe Kd and probe concentration, read-out: TR-FRET Binding Ki: BRD4 (BDI_K57-E168)
T2 construct: His-tagged first (BD1: amino acids K57-E168)
Procedure, shortened: as §1

[3] = tested on: breast cancer cell line MX-1; experiment: MX-1 cell line proliferation assay (3-day); assay type: cell-based; conditions: Homo sapiens, MX1, MX-1 cells, Cell Titer Glo, read-out: Cellular proliferation: EC50
Procedure, shortened: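 EC50 derived by sigmoidal fitting of Cell Titer Glo signal relative to DMSO controls. Compound, 3 μM down to 0.0001 μM final in 3-fold steps, was added to adhered MX-1 cells (5000/well, RPMI + 10% FBS) for a 3-day incubation at 37° C.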

[4] = TR-FRET assay protocol (A-G, compound concentration range)
[5] = TR-FRET assay protocol (D, E or G) per compound

Structure (SMILES) | Ki [1, 4] [nM] | Ki [2, 4] [nM] | EC50 ([3]; 72 h incubation) [nM] | Ki [1, 5] [nM] | Ki [2, 5] [nM] | EC50 ([3]; 72 hours with compound) [nM]
COc1cc(=O)n(C)nc1-c1cc(N)ccc1Oc1ccccc1 [Example 20, 6-(5-amino-2-phenoxyphenyl)-5-methoxy-2-methylpyridazin-3(2H)-one] | 524 | 2700 | 7160 |  |  | 
Cn1nc(-c2ccccc2Oc2ccccc2)c(-c2ccc(C3=NCCCO3)cc2)cc1=O [Example 95, 5-[4-(5,6-dihydro-4H-1,3-oxazin-2-yl)phenyl]-2-methyl-6-(2-phenoxyphenyl)pyridazin-3(2H)-one] | 145 | 172 | > 3000 |  |  | 
Cn1cc(-c2cc(NS(C)(=O)=O)ccc2Oc2cccc(C(F)(F)F)c2)ccc1=O [Example 244, N-{3-(1-methyl-6-oxo-1,6-dihydropyridin-3-yl)-4-[3-(trifluoromethyl)phenoxy]phenyl}methanesulfonamide] | 282 | 116 | 481 |  |  | 
CN1CCN(c2ccc(-c3cc(=O)n(C)nc3-c3ccccc3Oc3ccccc3)cc2)CC1 [Example 161, 2-methyl-5-[4-(4-methylpiperazin-1-yl)phenyl]-6-(2-phenoxyphenyl)pyridazin-3(2H)-one] | 24.9 | 26.3 | 244 |  |  | 
CC(O)c1ccc(-c2cc(=O)n(C)nc2-c2ccccc2Oc2ccccc2)cc1 (stereo not drawn) [Example 72, 5-[4-(1-hydroxyethyl)phenyl]-2-methyl-6-(2-phenoxyphenyl)pyridazin-3(2H)-one] | 128 | 225 | 3750 |  |  | 
Cn1nc(-c2ccccc2Oc2ccccc2)c(-c2cc[nH]c(=O)c2)cc1=O [Example 55, 2-methyl-5-(2-oxo-1,2-dihydropyridin-4-yl)-6-(2-phenoxyphenyl)pyridazin-3(2H)-one] | 778 | 6890 | 13700 |  |  | 
CCNC(=O)Nc1ccc(Oc2ccccc2)c(-c2nn(C)c(=O)cc2OC)c1 [Example 30, 1-ethyl-3-[3-(4-methoxy-1-methyl-6-oxo-1,6-dihydropyridazin-3-yl)-4-phenoxyphenyl]urea] | 1330 | > 2380 | 12900 |  |  | 
CCOC(=O)Nc1ccc(Oc2ccccc2)c(-c2nn(C)c(=O)cc2OC)c1 [Example 29, ethyl[3-(4-methoxy-1-methyl-6-oxo-1,6-dihydropyridazin-3-yl)-4-phenoxyphenyl]carbamate] | 950 | 1370 | 4530 |  |  | 
Cn1cc(-c2cc(NS(C)(=O)=O)ccc2Oc2ccc(C(F)(F)F)cc2)ccc1=O [Example 231, N-{3-(1-methyl-6-oxo-1,6-dihydropyridin-3-yl)-4-[4-(trifluoromethyl)phenoxy]phenyl}methanesulfonamide] | 539 | 44.6 | 911 |  |  | 
CN1CCN(Cc2ccc(-c3cc(=O)n(C)nc3-c3ccccc3Oc3ccccc3)cc2)CC1 [Example 61, 2-methyl-5-{4-[(4-methylpiperazin-1-yl)methyl]phenyl}-6-(2-phenoxyphenyl)pyridazin-3(2H)-one] | 48.9 | 33.1 | 911 |  |  | 
CC(=O)NCc1ccc(-c2cc(=O)n(C)nc2-c2ccccc2Oc2ccccc2)cc1 [Example 99, N-{4-[1-methyl-6-oxo-3-(2-phenoxyphenyl)-1,6-dihydropyridazin-4-yl]benzyl}acetamide] | 58.7 | 142 | 558 |  |  | 
COC(=O)CS(=O)(=O)Nc1ccc(Oc2ccccc2)c(-c2ccc(=O)n(C)c2)c1 [Example 225, methyl {[3-(1-methyl-6-oxo-1,6-dihydropyridin-3-yl)-4-phenoxyphenyl]sulfamoyl}acetate] | 107 | 152 | 10000 |  |  | 

Other lines, results leading:

Ki [1, 4] [nM] | Ki [2, 4] [nM] | EC50 ([3]; 72 h incubation) [nM] | Ki [1, 5] [nM] | Ki [2, 5] [nM] | EC50 ([3]; 72 hours with compound) [nM] | Structure (SMILES)
95.1 | 483 | 579 |  |  |  | CCS(=O)(=O)Nc1ccc(Oc2ccc(F)cc2F)c(-c2cn(C)c(=O)cc2C(F)(F)F)c1 [Example 268, N-{4-(2,4-difluorophenoxy)-3-[1-methyl-6-oxo-4-(trifluoromethyl)-1,6-dihydropyridin-3-yl]phenyl}ethanesulfonamide]
14.6 | 7.1 | 72.7 |  |  |  | CCN(CC)CC#CCOc1cc(=O)n(C)cc1-c1cc(NS(=O)(=O)CC)ccc1Oc1ccc(F)cc1F [Example 328, N-[3-(4-{[4-(diethylamino)but-2-yn-1-yl]oxy}-1-methyl-6-oxo-1,6-dihydropyridin-3-yl)-4-(2,4-difluorophenoxy)phenyl]ethanesulfonamide]
15.3 | 156 | 42.7 |  |  |  | CCS(=O)(=O)c1ccc(Oc2ccc(F)cc2F)c(-c2cn(C)c(=O)cc2OC2COC2)c1 [Example 318, 5-[2-(2,4-difluorophenoxy)-5-(ethylsulfonyl)phenyl]-1-methyl-4-(oxetan-3-yloxy)pyridin-2(1H)-one]
21.4 | 30.6 | 101 |  |  |  | CCS(=O)(=O)Nc1ccc(Oc2ccc(F)cc2F)c(-c2cn(C)c(=O)cc2OC2CC3(C2)CN(C(=O)OC(C)(C)C)C3)c1 [Example 325, tert-butyl 6-[(5-{2-(2,4-difluorophenoxy)-5-[(ethylsulfonyl)amino]phenyl}-1-methyl-2-oxo-1,2-dihydropyridin-4-yl)oxy]-2-azaspiro[3.3]heptane-2-carboxylate]
101 | 150 | 1140 |  |  |  | CCS(=O)(=O)Nc1ccc(Oc2ccc(F)cc2F)c(-c2cn(C)c(=O)cc2OCC2CCN(C)C2)c1 (stereo not drawn) [Example 323, N-[4-(2,4-difluorophenoxy)-3-{1-methyl-4-[(1-methylpyrrolidin-3-yl)methoxy]-6-oxo-1,6-dihydropyridin-3-yl]phenyl}ethanesulfonamide]
3.22 | 12 | 138 |  |  |  | CCS(=O)(=O)Nc1ccc(Oc2ccc(F)cc2F)c(-c2cn(C)c(=O)cc2OCC(C)C)c1 [Example 290, N-{4-(2,4-difluorophenoxy)-3-[1-methyl-4-(2-methylpropoxy)-6-oxo-1,6-dihydropyridin-3-yl]phenyl}ethanesulfonamide]
 |  |  | 1.43 | 11.8 | 24.7 | CCOc1cc(=O)n(C)cc1-c1cc(NS(=O)(=O)CC)ccc1Oc1c(F)cc(Cl)cc1F [Example 404, N-[4-(4-chloro-2,6-difluorophenoxy)-3-(4-ethoxy-1-methyl-6-oxo-1,6-dihydropyridin-3-yl)phenyl]ethanesulfonamide]
 |  |  | 16.1 | 62.1 | 126 | CCOc1cc(=O)n(C)cc1-c1cc(CS(=O)(=O)CC)ccc1Oc1ccc(F)cc1F [Example 379, 5-{2-(2,4-difluorophenoxy)-5-[(ethylsulfonyl)methyl]phenyl}-4-ethoxy-1-methylpyridin-2(1H)-one]
 |  |  | 4.29 | 22 | 69.2 | CCS(=O)(=O)Nc1ccc(Oc2ccc(F)cc2F)c(-c2cn(C)c(=O)cc2-c2ccco2)c1 [Example 392, N-{4-(2,4-difluorophenoxy)-3-[4-(furan-2-yl)-1-methyl-6-oxo-1,6-dihydropyridin-3-yl]phenyl}ethanesulfonamide]
5.1 | 12.6 | 112 |  |  |  | CCCc1cc(=O)n(C)cc1-c1cc(NS(=O)(=O)CC)ccc1Oc1ccc(F)cc1F [Example 359, N-[4-(2,4-difluorophenoxy)-3-(1-methyl-6-oxo-4-propyl-1,6-dihydropyridin-3-yl)phenyl]ethanesulfonamide]
382 | 730 | 1510 |  |  |  | COc1cc(=O)n(C)cc1-c1ccccc1Oc1ccccc1 [Example 258, 4-methoxy-1-methyl-5-(2-phenoxyphenyl)pyridin-2(1H)-one]
5.5 | 24.5 | 77.4 |  |  |  | Cn1cc(-c2cc(NS(C)(=O)=O)ccc2Oc2ccc(F)cc2F)c(-c2ccc(N3CCOCC3)cc2)cc1=O [Example 274, N-[4-(2,4-difluorophenoxy)-3-{1-methyl-4-[4-(morpholin-4-yl)phenyl]-6-oxo-1,6-dihydropyridin-3-yl]phenyl}methanesulfonamide]
5.44 | 10.2 | 126 |  |  |  | CCS(=O)(=O)Nc1ccc(Oc2ccc(F)cc2F)c(-c2cn(C)c(=O)cc2-c2cnn(CCN3CCOCC3)c2)c1 [Example 345, N-[4-(2,4-difluorophenoxy)-3-(1-methyl-4-{1-[2-(morpholin-4-yl)ethyl]-1H-pyrazol-4-yl}-6-oxo-1,6-dihydropyridin-3-yl)phenyl]ethanesulfonamide]
 |  |  | 20.1 | 31.1 | > 3000 | CCS(=O)(=O)Nc1ccc(Oc2ccc(F)cc2F)c(-c2cn(C)c(=O)cc2OCC2CCNCC2)c1 [Example 399, N-{4-(2,4-difluorophenoxy)-3-[1-methyl-6-oxo-4-(piperidin-4-ylmethoxy)-1,6-dihydropyridin-3-yl]phenyl}ethanesulfonamide]
